Tests used:
[1] = molecular target: T1, double-labeled CYP3A4 (C64/C468)-DY/ER (Homo sapiens, UniProt P08684, S18F, form not given); experiment: Time-resolved LRET (phosphorescence lifetime measurements)
From the text: (§1) The excitation wavelength was set to 540 nm.

[2] = molecular target: T2, double-labeled CYP3A4 C377/C468-DY/ER (Homo sapiens, UniProt P08684, S18F, form not given); experiment: as above
From the text: as §1

[3] = molecular target: T3, double-labeled CYP3A4 (C64/C468)-ER/DY (Homo sapiens, UniProt P08684, S18F, form not given); experiment: as above
T3 sequence (P08684 13-503 S18F, form open): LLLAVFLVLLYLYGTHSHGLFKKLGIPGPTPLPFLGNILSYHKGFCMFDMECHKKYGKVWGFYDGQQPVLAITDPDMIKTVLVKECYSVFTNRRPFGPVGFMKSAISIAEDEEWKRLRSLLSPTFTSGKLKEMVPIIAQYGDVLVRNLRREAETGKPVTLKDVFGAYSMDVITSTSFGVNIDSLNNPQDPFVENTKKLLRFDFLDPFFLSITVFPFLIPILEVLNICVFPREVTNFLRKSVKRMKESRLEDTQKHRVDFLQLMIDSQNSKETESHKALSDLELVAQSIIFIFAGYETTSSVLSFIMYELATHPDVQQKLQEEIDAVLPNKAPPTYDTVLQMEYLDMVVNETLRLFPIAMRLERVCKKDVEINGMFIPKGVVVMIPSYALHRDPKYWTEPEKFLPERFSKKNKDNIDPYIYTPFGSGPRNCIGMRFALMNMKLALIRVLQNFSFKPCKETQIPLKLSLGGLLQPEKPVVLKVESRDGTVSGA
From the text: as §1

[4] = molecular target: T4, double-labeled CYP3A4 C64/C121-DY/ER (Homo sapiens, UniProt P08684, A121C/C239S/C377S/C468A/C98S/S18F); experiment: Steady-state LRET titration (delayed emission); settings: Table S2; protein C64/C121-ER/DY; same ligand concentrations
T4 sequence (P08684 with tags, fused parts or gaps S18F/C98S/A121C/C239S/C377S/C468A limits assumed): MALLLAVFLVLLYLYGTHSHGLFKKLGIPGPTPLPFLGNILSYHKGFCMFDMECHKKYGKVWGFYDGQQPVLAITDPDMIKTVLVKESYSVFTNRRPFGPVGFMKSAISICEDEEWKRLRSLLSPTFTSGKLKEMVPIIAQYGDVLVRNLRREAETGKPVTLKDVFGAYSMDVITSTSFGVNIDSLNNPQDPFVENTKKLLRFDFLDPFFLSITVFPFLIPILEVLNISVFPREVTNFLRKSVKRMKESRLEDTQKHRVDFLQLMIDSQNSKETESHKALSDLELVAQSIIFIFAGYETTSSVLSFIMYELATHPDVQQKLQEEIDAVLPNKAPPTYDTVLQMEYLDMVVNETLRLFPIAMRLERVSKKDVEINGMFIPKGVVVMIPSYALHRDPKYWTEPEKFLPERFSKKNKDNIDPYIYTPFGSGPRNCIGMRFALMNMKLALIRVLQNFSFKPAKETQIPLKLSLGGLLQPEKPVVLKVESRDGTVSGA
Procedure: (§2) All absorbance and fluorescence assays (including the time-resolved fluorescence measurements) were performed at a protein concentration ≤1 µM at 25°C with continuous stirring. Absorbance spectra were recorded with an S2000 rapid scanning CCD spectrometer (Ocean Optics). Ligand binding assays were done in 100 mM Na-Hepes buffer, pH 7.4, containing 0.5 mM EDTA.
(§3) Fluorescence-based ligand binding assays were done under anaerobic conditions. Anaerobiosis was achieved using an oxygen-scavenging system consisting of protecatechuate-3,4-dioxygenase (0.5 units/ml) and 5 mM protocatechuic acid. The steady state and time-resolved phosphorescence measurements were performed with the use of a Cary Eclipse fluorescence spectrophotometer (Varian/Agilent Technologies). The excitation wavelength was set to 540 nm. Spectra were taken from 650 to 860 nm with 100 µs delay.
(§4) Quantitative interpretation of LRET results was also based on the use of PCA applied to a series of emission spectra normalized on integral intensity. […] Intensity of the donor and acceptor fluorescence obtained in this way were used in determination of the efficiency of steady-state LRET using the equation [drawing 1] (Eq.1) where I ad is emission intensity of the acceptor, I da is the residual donor emission in the presence of acceptor (I da), Φ a and Φ d are the quantum yield of the fluorescence of acceptor and the quantum yield of the phosphorescence of donor, respectively.
(§5) Distances were calculated using the equation: [drawing 3] (Eq.3) where R 0 is the Förster distance, and R is the distance between the donor and acceptor. R 0 was calculated with the use of PhotoChemCad software. In these calculations, we used the values of the orientation factor (κ^2) and the refractive index (n) of 0.667 and 1.4, respectively.
(§6) When fitting the results of titration experiments, where the changes in the monitored signal A S (fraction of the enzyme in the high-spin state, intensity or the lifetime of the donor phosphorescence at a given substrate concentration) were assumed to be proportional to [ES], this equation was complemented with the offset A 0 and the scaling factor A max to yield the following relationship: [drawing 5] (Eq.5)

[5] = molecular target: T4, double-labeled CYP3A4 C64/C121-DY/ER; experiment: Time-resolved LRET (phosphorescence lifetime measurements)
Procedure: as §2, §3
The treatment of the time-resolved decay traces was performed using a bi-exponential approximation. The efficiency of time-resolved LRET was calculated using the equation [drawing 2] (Eq.2)
In this equation τda and τd designate the average lifetime of the excited state of the donor in the presence and absence of the acceptor, respectively. These average lifetimes are determined as τ = α1τ1+α2τ2, where τ1,2 and α1,2 stay for the lifetime and the relative amplitude of each of the two exponential terms. In our calculations of the lifetime in double-labeled C64/C468, C377/C468 and C64/C121 proteins we used the lifetimes of phosphorescence measured with the respective proteins labeled with ERIA at a label:protein ratio 2∶1 as the estimates of τd.
as §5

[6] = molecular target: CYP3A4 (double-labeled (C64/C468)-DY/ER) (Homo sapiens, UniProt P08684, form not given/S18F); experiment: Steady-state LRET titration (delayed emission); format: binding; settings: human, purified double-labeled CYP3A4 C64/C468-DY/ER protein, pH 7.4
Chain of CYP3A4 (double-labeled (C64/C468)-DY/ER) (P08684 13-503 S18F, form open): as the sequence (P08684 13-503 S18F, form open) above
Procedure: as §2, §3, §4, §5, §6

[7] = molecular target: T1, double-labeled CYP3A4 (C64/C468)-DY/ER; experiment: Steady-state LRET titration (delayed emission); format: binding
Procedure: as §2, §3, §4, §5, §6

[8] = molecular target: T2, double-labeled CYP3A4 C377/C468-DY/ER; experiment: Steady-state LRET titration (delayed emission); format: binding; settings: Table S2; protein C377/C468-ER/DY; same ligand concentrations
Procedure: as §2, §3, §4, §5, §6

[9] = molecular target: T3, double-labeled CYP3A4 (C64/C468)-ER/DY; experiment: Steady-state LRET titration (delayed emission); format: binding
Procedure: as §2, §3, §4, §5, §6

[10] = molecular target: CYP3A4 (double-labeled (C64/C468)-ER/DY) (Homo sapiens, UniProt P08684, form not given/S18F); experiment: Steady-state LRET titration (delayed emission); format: binding; settings: human, purified double-labeled CYP3A4 C64/C468-ER/DY protein, pH 7.4
Chain of CYP3A4 (double-labeled (C64/C468)-ER/DY) (P08684 13-503 S18F, form open): as above
Procedure: as §2, §3, §4, §5, §6

[11] = molecular target: CYP3A4 (C377/C468 mutant) (Homo sapiens, UniProt P08684, form not given/S18F); experiment: Ligand-induced spin shift, absorbance titration; format: binding; settings: human, purified CYP3A4(C377/C468) mutant protein, pH 7.4
Chain of CYP3A4 (C377/C468 mutant) (P08684 13-503 S18F, form open): as above
Procedure: as §2
(§7) Absorbance spectra obtained in titration experiments were analyzed with a principal component analysis (PCA) procedure complemented with least-square approximation of the principal vectors with a combination of the prototypical spectra of the CYP3A4 low-spin, high-spin and Type II-substrate-bound ferric CYP3A4 P450 states as described, [31].
as §6

[12] = molecular target: CYP3A4 (double-labeled C64/C468-ER/DY) (Homo sapiens, UniProt P08684, form not given/S18F); experiment: Ligand-induced spin shift, absorbance titration; format: binding; settings: human, purified double-labeled CYP3A4 C64/C468-ER/DY protein, pH 7.4
Chain of CYP3A4 (double-labeled C64/C468-ER/DY) (P08684 13-503 S18F, form open): as above
Procedure: as §2, §7, §6

CYP3A4 (C64/C468 mutant) = CYP3A4 (C64/C468 mutant) (Homo sapiens, UniProt P08684, form not given/S18F); experiment: Ligand-induced spin shift, absorbance titration; format: binding; settings: human, purified CYP3A4(C64/C468) mutant protein, pH 7.4
Chain of CYP3A4 (C64/C468 mutant) (P08684 13-503 S18F, form open): as above
Procedure: as §2, §7, §6

[13] = Table S1, (C64/C468)-DY/ER, same ligand concentrations
[14] = Table S2, C64/C468-DY/ER, same ligand concentrations
[15] = Table S1, protein (C377/C468)-ER/DY, same ligand concentrations
[16] = Table S2, protein C377/C468-ER/DY, same ligand concentrations
[17] = Table S1, (C64/C468)-ER/DY, same ligand concentrations
[18] = Table S2, C64/C468-ER/DY, same ligand concentrations
[19] = Table S1, protein (C64/C121)-ER/DY, same ligand concentrations
[20] = Table S2, protein C64/C121-ER/DY, same ligand concentrations

T1 sequence (P08684 13-503 S18F, form open): as above
T2 sequence (P08684 13-503 S18F, form open): as above

Structure (SMILES): C[C@]12CC[C@H]3[C@@H](CCC4=CC(=O)CC[C@@]43C)[C@@H]1CC[C@@H]2O [Testosterone, testosterone]
- τ1 (phosphorescence decay time with ligand) ([1]; Table S1, (C64/C468)-DY/ER, 1-PB 40 µM, ANF 100 µM, BCT 2.5 µM, cholesterol 100 µM, testosterone 100 µM, bi-exponential fit): 69 ± 1 µs
- F1 (fraction of first exponential) [1, 13]: 39 ± 8%
- τ2 (phosphorescence decay time with ligand) [1, 13]: 247 ± 2 µs
- τav (average phosphorescence lifetime with ligand) [1, 13]: 176 ± 2 µs
- R (interprobe distance with ligand), lifetime measurements [1, 14]: 41.6 ± 0.3 Å
- ΔR, lifetime measurements [1, 14]: 4.8 ± 0.3 Å
- τ1 (phosphorescence decay time with ligand) ([2]; Table S1, protein (C377/C468)-ER/DY, 1-PB 40 µM, ANF 100 µM, BCT 2.5 µM, cholesterol 100 µM, testosterone 100 µM, bi-exponential fit): 42 ± 9 µs
- F1 (fraction of first exponential) [2, 15]: 26 ± 7%
- τ2 (phosphorescence decay time with ligand) [2, 15]: 193 ± 5 µs
- τav (average phosphorescence lifetime with ligand) [2, 15]: 152 ± 12 µs
- R (interprobe distance with ligand), lifetime measurements [2, 16]: 45.3 ± 3.0 Å
- ΔR, lifetime measurements [2, 16]: 8.5 ± 3.0 Å
- ΔR (change in interprobe distance), lifetime measurements ([3]; (C64/C468)-ER/DY, nearly-saturating ligand: ANF 100 µM, bromocriptine 2.5 µM, cholesterol 50 µM, testosterone 100 µM): 4.5±0.5 Å
- τ1 (phosphorescence decay time with ligand) ([3]; Table S1, (C64/C468)-ER/DY, 1-PB 40 µM, ANF 100 µM, BCT 2.5 µM, cholesterol 100 µM, testosterone 100 µM, bi-exponential fit): 67 ± 6 µs
- F1 (fraction of first exponential) [3, 17]: 48 ± 2%
- τ2 (phosphorescence decay time with ligand) [3, 17]: 267 ± 11 µs
- τav (average phosphorescence lifetime with ligand) [3, 17]: 171 ± 4 µs
- R (interprobe distance with ligand), lifetime measurements [3, 18]: 40.8 ± 0.6 Å
- ΔR, lifetime measurements [3, 18]: 4.5 ± 0.6 Å
- R (interprobe distance with ligand), steady-state measurements [4]: 43.9 ± 0.5 Å
- ΔR, steady-state measurements [4]: 1.3 ± 0.5 Å
- τ1 (phosphorescence decay time with ligand) ([5]; Table S1, protein (C64/C121)-ER/DY, 1-PB 40 µM, ANF 100 µM, BCT 2.5 µM, cholesterol 100 µM, testosterone 100 µM, bi-exponential fit): 66 ± 9 µs
- F1 (fraction of first exponential) [5, 19]: 38 ± 4%
- τ2 (phosphorescence decay time with ligand) [5, 19]: 228 ± 23 µs
- τav (average phosphorescence lifetime with ligand) [5, 19]: 165 ± 9 µs
- R (interprobe distance with ligand), lifetime measurements [5, 20]: 36.9 ± 0.7 Å
- ΔR, lifetime measurements [5, 20]: 1.9 ± 0.7 Å
- Kd [6]: 16.4 ± 3.5 µM
- ΔR (change in interprobe distance), steady-state fluorescence ([7]; (C64/C468)-DY/ER): 5.5±1.9 Å
- R (interprobe distance with ligand), steady-state measurements [7, 14]: 40.4 ± 1.9 Å
- ΔR, steady-state measurements [7, 14]: 5.5 ± 1.9 Å
- R (interprobe distance with ligand), steady-state measurements [8]: 46.7 ± 0.7 Å
- ΔR, steady-state measurements [8]: 2.0 ± 0.7 Å
- ΔR (change in interprobe distance), steady-state fluorescence ([9]; (C64/C468)-ER/DY): 3.1±1.0 Å
- R (interprobe distance with ligand), steady-state measurements [9, 18]: 42.2 ± 1.0 Å
- ΔR, steady-state measurements [9, 18]: 3.1 ± 1.0 Å
- Kd [10]: 22.8 ± 3.6 µM
- Kd [11]: 51 ± 8 µM
- Kd [12]: 38 ± 6 µM
- Kd (CYP3A4 (C64/C468 mutant)): 39 ± 10 µM

Source: publication PMC3871636 (PLoS ONE, 2013)
